Measured values: paper PMC4639751, “Development of 1-N-^11C-Methyl-L- and -D-Tryptophan for pharmacokinetic imaging of the immune checkpoint inhibitor 1-Methyl-Tryptophan” (Scientific Reports, 2015)

Key:
[1] = PET, rats, 60 min after injection, mean ± SEM, four rats
Method: Emission scans were acquired in three-dimensional list mode with an energy window of 350–650 keV under isoflurane anesthesia, from 0 to 60 min after radioprobe administration. All list-mode acquisition data were sorted into three-dimensional sinograms, which were then Fourier-rebinned into two-dimensional sonograms (frames × min: 4 × 1, 8 × 2, 8 × 5), and corrections for scanner dead time, randoms, and decay of the injected radioprobe. Dynamic images were reconstructed with filtered back-projection using a Hanning filter and a Nyquist cut-off of 0.5 cycles/pixel. Immediately after completion of PET scans, contrast-enhanced CT scans were performed in the rats by using the small-animal CT system (R_mCT2; Rigaku, Tokyo) after injection of 1 mL of non-ionic contrast medium (Iopamiron 370, Bayer, Osaka). The scan conditions included radiation parameters of 200 μA and 90 kV, FOV of 60 mm, and acquisition time of 34 s. CT images were collected, reconstructed, and observed using I-View-R software (Rigaku, The Woodlands, TX). Averaged CT attenuation images and dynamic PET images were reconstructed and fused using the Siemens Inveon Research Workplace (IRW) 4.0 software.
Regions of interest (ROI) in major organs and tissues were drawn in the PET/CT fusion images by manual outlining the organs and tissues in the CT images throughout the image slices by using IRW 4.0 software. The average radioactivity concentration was obtained from mean pixel values in the ROI volume. Regional uptake of radioactivity was decay-corrected to the injection time and expressed as the standardized uptake value (SUV), normalized for injected radioactivity and body weight. SUV was calculated as SUV = (radioactivity per cubic centimeter tissue/injected radioactivity) × body weight in grams. TACs of the radioprobes in individual organ and tissue were determined. Values of area under time-activity curves (AUC2–60 min, SUV × min) were calculated from 2 to 60 min post-injection to minimize the early perfusion effects.

[2] = Ex vivo biodistribution studies; conditions: SD rats, 60 min after injection, mean ± SEM, n = 4
Text: Major organs and tissues (blood, heart, lung, liver, pancreas, spleen, kidney, intestine, muscle, and brain), were promptly excised, harvested, and weighed. Radioactivity was counted using a γ-counter and expressed as a percentage of the injected dose per gram of wet tissue (%ID/g). All radioactivity measurements were corrected for decay.

## Cn1cc(C[C@H](N)C(=O)O)c2ccccc21 [L-1MTrp, 1-Methyl-L-tryptophan, reference compound]
[1]
  SUV in the pancreas: 2.28
[2]
  Biodistribution, radioactivity in Pancreas: 2.27 %ID/g tissue
